According to article PMC7255801, “Disease-associated mutations in the human TRPM3 render the channel overactive via two distinct mechanisms” (eLife, 2020):

Experiments:
wild-type hTRPM3_1325 = molecular target: T1, wild-type hTRPM3_1325 (Homo sapiens, UniProt Q9HCF6); assay: Two electrode voltage clamp in Xenopus oocytes, wild type channel; assay type: cell-based; conditions: wild type TRPM3, 50 μM, room temperature (20–22°C)
T1 construct: expressed in transfected cells; host or cells: Xenopus laevis oocytes (cRNA injection)
T1 sequence (Q9HCF6 1-1325 isoform Q9HCF6-10): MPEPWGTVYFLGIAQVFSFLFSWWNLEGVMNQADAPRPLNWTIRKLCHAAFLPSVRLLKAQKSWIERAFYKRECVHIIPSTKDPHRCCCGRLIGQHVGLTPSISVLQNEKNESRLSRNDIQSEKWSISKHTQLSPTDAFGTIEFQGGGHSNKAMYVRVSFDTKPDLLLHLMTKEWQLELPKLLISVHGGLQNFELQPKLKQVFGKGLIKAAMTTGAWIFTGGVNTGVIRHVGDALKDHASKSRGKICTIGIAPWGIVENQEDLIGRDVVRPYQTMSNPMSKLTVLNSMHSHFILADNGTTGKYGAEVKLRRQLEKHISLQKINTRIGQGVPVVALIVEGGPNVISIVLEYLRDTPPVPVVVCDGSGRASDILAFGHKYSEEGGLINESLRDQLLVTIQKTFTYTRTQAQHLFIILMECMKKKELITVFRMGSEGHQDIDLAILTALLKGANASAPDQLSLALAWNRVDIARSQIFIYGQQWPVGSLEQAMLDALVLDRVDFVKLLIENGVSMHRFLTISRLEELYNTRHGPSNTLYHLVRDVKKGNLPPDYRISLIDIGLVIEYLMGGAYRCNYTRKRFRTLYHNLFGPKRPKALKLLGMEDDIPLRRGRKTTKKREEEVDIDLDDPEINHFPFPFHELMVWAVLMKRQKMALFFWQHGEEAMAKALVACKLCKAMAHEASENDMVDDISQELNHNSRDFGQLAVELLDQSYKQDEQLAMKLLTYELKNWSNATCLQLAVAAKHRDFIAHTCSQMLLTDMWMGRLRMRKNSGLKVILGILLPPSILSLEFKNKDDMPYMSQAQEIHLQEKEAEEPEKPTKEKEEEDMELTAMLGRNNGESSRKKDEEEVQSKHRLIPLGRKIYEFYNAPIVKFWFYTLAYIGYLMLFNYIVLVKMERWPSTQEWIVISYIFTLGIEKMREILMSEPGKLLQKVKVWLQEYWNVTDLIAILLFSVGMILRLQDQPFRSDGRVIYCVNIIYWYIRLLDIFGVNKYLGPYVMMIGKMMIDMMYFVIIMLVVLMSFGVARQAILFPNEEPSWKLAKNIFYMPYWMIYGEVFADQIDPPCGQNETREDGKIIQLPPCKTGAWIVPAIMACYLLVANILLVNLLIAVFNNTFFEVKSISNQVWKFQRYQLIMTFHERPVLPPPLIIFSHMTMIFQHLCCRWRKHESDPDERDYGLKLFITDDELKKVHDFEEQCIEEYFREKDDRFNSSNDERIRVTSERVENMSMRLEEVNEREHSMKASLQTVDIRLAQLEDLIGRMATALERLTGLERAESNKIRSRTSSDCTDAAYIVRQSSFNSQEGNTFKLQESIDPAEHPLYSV
Method: (§1) Xenopus laevis oocytes were prepared as described earlier ([Badheka et al., 2015]). All animal procedures were approved by the Institutional Animal Care and Use Committee at Rutgers New Jersey Medical School. In brief, frogs were anesthetized in 0.25% ethyl 3-aminobenzoate methanesulfonate solution (MS222; Sigma-Aldrich); bags of ovaries were removed surgically from the anesthetized frogs. Individual oocytes were obtained by overnight digestion at 16°C in 0.2–0.3 mg/ml type 1A collagenase (Sigma-Aldrich), dissolved in a solution containing 82.5 mM NaCl, 2 mM KCl, 1 mM MgCl2, and […] HEPES, pH 7.4 (OR2 solution). The next day the collagenase containing solution was discarded and the oocytes were washed multiple times with OR2 solution. […]
(§2) Two electrode voltage clamp experiments were performed as described ([Badheka et al., 2015]). In brief, oocytes were placed in extracellular solution (97 mM NaCl, 2 mM KCl, 1 mM MgCl2, and […] HEPES, pH 7.4), and currents were recorded with thin-wall inner filament– containing glass pipettes (World Precision Instruments) filled with 3 M KCl in 1% agarose. Currents were measured with a ramp protocol from −100 to 100 mV once every 0.5 s with a GeneClamp 500B amplifier and analyzed with the pClamp 9.0 software (Molecular Devices). […]

non-injected oocytes = assay: Two electrode voltage clamp in non-injected oocytes; assay type: cell-based, Xenopus laevis; conditions: 50 μM, n = 5
Method: as §1, §2

SMILES: CCC1(c2ccccc2)C(=O)NCNC1=O [primidone]
- Inhibition of basal current (wild-type hTRPM3_1325): small reduction
- Inhibition of basal current (non-injected oocytes): did not induce any inhibition
